According to publication PMC8550792, “Evolution of kinase polypharmacology across HSP90 drug discovery” (Cell Chemical Biology, 2021):

Columns and labels:
Test in all cases: biochemical
Format in all cases: biochemical
[1] = molecular target: T1, 382 unique human kinases (Homo sapiens, UniProt Q9UKI8); details: TLK1, 10 uM; for remaining activity at 10 µM: read-out: % Enzyme Activity (relative to DMSO controls)
T1 construct: purchased Reaction Biology (HotSpot contract assay)
T1 sequence (Q9UKI8 1-766): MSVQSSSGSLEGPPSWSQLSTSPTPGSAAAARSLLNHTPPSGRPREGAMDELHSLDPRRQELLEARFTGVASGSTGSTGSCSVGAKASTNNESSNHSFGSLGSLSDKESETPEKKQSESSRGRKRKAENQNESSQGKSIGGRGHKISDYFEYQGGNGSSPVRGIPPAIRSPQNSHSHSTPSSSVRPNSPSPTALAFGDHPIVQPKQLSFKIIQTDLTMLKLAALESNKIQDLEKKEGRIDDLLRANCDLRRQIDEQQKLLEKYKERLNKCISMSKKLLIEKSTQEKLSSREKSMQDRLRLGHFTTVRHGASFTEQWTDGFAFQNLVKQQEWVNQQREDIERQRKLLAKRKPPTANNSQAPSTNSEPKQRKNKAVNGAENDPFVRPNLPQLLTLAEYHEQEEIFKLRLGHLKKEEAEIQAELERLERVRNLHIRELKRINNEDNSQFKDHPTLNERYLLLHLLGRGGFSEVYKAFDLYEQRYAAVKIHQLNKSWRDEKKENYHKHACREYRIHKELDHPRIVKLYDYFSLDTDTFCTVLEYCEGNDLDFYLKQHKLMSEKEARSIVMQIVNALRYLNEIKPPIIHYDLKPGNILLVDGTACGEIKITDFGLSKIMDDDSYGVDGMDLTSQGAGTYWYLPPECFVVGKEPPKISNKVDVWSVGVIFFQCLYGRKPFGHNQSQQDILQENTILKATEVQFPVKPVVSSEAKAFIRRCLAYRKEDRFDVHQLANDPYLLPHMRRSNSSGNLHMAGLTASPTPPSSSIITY

[2] = molecular target: T2, 382 unique human kinases (Homo sapiens, UniProt Q9HBH9); details: kinase MNK2, compound 10 uM; for remaining activity at 10 µM: read-out: % Enzyme Activity (relative to DMSO controls)
T2 construct: purchased Reaction Biology (HotSpot contract assay)

[3] = molecular target: T3, 382 unique human kinases (Homo sapiens, UniProt Q9BYT3); details: kinase STK33, compound 10 uM; for remaining activity at 10 µM: read-out: % Enzyme Activity (relative to DMSO controls)
T3 construct: purchased Reaction Biology (HotSpot contract assay)

[4] = molecular target: T4, 382 unique human kinases (Homo sapiens, UniProt Q9P286); details: PAK5, compound at 10 uM, duplicate values; for remaining activity at 10 µM: read-out: % Enzyme Activity (relative to DMSO controls)
T4 construct: purchased Reaction Biology (HotSpot contract assay)

[5] = molecular target: T5, 382 unique human kinases (Homo sapiens, UniProt P31749); details: kinase AKT1, compound 10 uM; for remaining activity at 10 µM: read-out: % Enzyme Activity (relative to DMSO controls)
T5 construct: purchased Reaction Biology (HotSpot contract assay)

[6] = molecular target: T6, 382 unique human kinases (Homo sapiens, UniProt P16591); details: kinase FER, compound 10 uM; for remaining activity at 10 µM: read-out: % Enzyme Activity (relative to DMSO controls)
T6 construct: purchased Reaction Biology (HotSpot contract assay)

[7] = molecular target: T7, 382 unique human kinases (Homo sapiens, UniProt O95835); details: LATS1, 10 uM; for remaining activity at 10 µM: read-out: % Enzyme Activity (relative to DMSO controls)
T7 construct: purchased Reaction Biology (HotSpot contract assay)
T7 sequence (O95835 1-1130): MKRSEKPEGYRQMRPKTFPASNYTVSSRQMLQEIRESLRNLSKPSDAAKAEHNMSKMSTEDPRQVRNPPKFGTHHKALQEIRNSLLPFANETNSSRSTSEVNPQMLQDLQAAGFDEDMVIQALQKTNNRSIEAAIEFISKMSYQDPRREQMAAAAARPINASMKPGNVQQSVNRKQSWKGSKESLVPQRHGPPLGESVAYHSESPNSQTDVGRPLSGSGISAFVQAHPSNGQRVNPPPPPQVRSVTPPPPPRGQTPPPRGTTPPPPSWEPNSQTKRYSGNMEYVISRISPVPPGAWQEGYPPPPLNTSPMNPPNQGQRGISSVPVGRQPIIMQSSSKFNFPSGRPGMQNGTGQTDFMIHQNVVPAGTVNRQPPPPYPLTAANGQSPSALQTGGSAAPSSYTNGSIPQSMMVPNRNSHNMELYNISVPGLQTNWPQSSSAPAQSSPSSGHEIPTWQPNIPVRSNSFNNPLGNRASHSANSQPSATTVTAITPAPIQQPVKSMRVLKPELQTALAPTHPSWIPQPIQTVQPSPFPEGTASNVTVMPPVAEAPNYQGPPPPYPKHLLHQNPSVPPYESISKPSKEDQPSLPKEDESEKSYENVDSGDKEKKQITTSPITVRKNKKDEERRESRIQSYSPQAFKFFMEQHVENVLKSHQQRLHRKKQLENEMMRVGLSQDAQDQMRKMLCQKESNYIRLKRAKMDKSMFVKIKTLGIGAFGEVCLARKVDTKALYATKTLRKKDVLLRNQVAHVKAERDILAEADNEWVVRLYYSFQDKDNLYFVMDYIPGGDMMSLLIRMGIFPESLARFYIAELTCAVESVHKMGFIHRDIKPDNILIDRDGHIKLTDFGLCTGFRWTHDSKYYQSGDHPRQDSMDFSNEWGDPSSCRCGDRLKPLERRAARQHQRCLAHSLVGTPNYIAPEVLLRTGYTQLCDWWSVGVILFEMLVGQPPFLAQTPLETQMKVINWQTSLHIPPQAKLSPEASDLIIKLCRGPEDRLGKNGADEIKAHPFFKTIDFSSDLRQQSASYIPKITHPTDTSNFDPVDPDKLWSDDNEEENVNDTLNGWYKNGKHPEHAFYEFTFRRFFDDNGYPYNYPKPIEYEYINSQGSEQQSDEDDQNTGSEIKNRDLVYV

[8] = molecular target: T8, 382 unique human kinases (Homo sapiens, UniProt O94921); details: CDK14/cyclin Y (PFTK1), 10 uM; for remaining activity at 10 µM: read-out: % Enzyme Activity (relative to DMSO controls)
T8 construct: purchased Reaction Biology (HotSpot contract assay)

[9] = molecular target: T9, 382 unique human kinases (Homo sapiens, UniProt P07333); details: FMS, [ATP] 100 µM, compound 10 uM; for remaining activity at 10 µM: read-out: % Enzyme Activity (relative to DMSO controls)
T9 construct: purchased Reaction Biology (HotSpot contract assay)

[10] = molecular target: T10, 382 unique human kinases (Homo sapiens, UniProt P11362, V561M); details: FGFR1 (V561M), 10 uM; for remaining activity at 10 µM: read-out: % Enzyme Activity (relative to DMSO controls)
T10 construct: purchased Reaction Biology (HotSpot contract assay)
T10 sequence (P11362 22-822 V561M): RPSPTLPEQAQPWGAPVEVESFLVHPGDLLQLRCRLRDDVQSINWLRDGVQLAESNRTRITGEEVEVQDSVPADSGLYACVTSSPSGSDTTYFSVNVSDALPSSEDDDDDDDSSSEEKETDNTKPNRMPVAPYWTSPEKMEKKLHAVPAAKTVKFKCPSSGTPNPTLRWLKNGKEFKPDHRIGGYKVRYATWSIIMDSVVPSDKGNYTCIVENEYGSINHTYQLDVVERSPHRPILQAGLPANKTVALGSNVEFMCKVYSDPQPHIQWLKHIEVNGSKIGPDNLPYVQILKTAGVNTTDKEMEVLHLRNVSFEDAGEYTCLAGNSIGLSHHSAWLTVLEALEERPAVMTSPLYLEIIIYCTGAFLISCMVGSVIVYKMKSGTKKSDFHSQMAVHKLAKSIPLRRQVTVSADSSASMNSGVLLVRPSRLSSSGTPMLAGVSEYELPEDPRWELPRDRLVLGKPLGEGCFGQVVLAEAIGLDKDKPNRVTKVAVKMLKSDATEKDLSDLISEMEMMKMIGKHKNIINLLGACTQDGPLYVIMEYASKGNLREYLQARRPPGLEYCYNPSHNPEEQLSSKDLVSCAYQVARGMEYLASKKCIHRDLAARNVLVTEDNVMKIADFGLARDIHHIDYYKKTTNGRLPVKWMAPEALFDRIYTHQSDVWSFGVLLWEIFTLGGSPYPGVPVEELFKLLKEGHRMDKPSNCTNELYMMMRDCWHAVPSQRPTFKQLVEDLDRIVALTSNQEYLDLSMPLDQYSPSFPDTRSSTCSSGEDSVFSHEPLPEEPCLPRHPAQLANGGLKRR

T9 sequence (P07333 20-972): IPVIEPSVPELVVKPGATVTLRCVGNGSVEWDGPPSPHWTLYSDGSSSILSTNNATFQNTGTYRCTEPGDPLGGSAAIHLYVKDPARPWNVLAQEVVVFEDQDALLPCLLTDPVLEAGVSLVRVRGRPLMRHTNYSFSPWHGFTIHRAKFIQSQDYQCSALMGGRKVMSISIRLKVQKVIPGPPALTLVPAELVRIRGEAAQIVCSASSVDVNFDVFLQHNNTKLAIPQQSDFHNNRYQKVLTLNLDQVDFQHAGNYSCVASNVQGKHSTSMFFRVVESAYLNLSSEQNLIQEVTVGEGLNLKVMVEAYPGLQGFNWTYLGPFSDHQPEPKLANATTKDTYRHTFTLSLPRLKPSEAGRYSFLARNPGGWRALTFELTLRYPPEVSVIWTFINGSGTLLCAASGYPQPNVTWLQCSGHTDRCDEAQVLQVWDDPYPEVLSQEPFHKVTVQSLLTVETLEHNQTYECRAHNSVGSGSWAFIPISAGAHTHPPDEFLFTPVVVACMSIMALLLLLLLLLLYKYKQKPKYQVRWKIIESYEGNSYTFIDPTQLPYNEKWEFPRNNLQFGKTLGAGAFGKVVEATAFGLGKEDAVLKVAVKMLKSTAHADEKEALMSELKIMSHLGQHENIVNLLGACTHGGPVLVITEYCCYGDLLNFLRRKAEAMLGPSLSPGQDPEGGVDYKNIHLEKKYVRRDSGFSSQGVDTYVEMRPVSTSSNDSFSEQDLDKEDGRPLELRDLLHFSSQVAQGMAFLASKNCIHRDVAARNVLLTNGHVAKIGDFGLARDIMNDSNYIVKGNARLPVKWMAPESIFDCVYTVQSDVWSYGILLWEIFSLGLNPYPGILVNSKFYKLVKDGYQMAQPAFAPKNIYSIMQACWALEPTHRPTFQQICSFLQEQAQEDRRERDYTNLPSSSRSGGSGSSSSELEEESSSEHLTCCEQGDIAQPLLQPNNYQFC
T8 sequence (O94921 whole entry): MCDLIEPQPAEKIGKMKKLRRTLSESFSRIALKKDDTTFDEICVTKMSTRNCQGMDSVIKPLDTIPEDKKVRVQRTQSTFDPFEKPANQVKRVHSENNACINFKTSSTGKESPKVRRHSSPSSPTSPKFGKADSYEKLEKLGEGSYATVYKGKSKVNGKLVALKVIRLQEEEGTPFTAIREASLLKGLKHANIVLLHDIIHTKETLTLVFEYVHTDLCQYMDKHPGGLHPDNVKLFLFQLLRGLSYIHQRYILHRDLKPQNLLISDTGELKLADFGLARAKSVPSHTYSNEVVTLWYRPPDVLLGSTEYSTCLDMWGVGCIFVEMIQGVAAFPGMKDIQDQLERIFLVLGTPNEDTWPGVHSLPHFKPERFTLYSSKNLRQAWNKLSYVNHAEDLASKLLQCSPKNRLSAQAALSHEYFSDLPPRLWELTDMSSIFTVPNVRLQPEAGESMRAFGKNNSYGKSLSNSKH
T3 sequence (Q9BYT3 whole entry): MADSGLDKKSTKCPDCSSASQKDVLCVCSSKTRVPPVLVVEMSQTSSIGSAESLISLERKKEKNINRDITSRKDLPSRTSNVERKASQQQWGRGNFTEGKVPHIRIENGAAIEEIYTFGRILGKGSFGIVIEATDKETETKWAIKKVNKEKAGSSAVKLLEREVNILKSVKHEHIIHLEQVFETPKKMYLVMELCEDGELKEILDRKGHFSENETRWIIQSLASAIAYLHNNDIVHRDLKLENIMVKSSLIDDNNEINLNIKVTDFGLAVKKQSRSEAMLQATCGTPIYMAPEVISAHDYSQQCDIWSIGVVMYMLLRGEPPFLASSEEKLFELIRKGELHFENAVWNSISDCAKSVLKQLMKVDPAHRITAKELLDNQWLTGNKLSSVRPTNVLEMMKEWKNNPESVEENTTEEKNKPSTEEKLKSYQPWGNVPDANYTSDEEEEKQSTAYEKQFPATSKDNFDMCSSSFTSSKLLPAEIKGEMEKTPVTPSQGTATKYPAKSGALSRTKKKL
T6 sequence (P16591 whole entry): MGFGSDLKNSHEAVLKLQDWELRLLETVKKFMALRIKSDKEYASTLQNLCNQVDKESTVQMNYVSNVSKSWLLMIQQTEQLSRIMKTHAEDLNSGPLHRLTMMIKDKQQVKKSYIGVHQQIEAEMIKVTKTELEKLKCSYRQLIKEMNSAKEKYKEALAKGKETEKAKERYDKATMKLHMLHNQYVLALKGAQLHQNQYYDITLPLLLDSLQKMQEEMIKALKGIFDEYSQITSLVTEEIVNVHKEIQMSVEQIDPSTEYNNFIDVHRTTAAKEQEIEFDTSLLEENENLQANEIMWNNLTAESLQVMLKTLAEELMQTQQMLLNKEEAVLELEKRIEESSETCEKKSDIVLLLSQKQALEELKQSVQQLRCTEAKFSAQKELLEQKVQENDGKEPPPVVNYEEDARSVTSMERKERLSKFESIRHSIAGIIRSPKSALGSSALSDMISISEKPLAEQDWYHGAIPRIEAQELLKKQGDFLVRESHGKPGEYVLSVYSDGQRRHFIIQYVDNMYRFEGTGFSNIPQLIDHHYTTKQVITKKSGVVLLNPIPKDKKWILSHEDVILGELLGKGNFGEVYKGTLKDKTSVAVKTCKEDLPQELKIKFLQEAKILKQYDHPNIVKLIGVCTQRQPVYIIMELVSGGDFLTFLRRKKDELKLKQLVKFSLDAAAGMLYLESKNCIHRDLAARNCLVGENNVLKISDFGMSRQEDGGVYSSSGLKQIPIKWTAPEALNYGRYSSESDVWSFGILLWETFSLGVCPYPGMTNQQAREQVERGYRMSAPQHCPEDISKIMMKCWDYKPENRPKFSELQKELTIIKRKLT
T2 sequence (Q9HBH9 whole entry): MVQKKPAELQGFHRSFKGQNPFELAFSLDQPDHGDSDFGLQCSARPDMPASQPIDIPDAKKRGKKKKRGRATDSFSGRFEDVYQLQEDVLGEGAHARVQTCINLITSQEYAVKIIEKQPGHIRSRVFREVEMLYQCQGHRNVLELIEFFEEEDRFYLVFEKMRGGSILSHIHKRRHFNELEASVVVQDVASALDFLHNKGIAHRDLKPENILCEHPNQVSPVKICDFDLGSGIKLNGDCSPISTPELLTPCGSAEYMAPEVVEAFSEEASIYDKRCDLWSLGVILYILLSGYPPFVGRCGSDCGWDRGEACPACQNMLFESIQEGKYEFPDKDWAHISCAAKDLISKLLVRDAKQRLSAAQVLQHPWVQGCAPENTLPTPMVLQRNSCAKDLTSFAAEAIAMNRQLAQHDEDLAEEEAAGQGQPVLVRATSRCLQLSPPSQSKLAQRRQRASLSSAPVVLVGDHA
T5 sequence (P31749 whole entry): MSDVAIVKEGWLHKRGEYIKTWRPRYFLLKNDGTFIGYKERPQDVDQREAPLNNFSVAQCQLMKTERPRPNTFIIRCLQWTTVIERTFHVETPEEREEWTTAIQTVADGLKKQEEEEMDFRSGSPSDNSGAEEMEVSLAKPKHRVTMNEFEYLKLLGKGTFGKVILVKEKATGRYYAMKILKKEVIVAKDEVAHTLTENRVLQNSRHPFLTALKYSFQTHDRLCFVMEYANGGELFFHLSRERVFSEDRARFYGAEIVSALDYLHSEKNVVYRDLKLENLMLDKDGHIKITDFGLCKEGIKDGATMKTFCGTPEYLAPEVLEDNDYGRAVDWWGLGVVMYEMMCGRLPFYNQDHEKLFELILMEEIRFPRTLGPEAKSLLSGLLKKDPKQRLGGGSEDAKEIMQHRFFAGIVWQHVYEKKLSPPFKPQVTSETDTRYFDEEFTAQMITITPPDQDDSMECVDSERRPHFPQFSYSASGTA

| Structure (SMILES) | remaining activity at 10 µM [1] | remaining activity at 10 µM [2] | remaining activity at 10 µM [3] | remaining activity at 10 µM [4] | remaining activity at 10 µM [5] | remaining activity at 10 µM [6] | remaining activity at 10 µM [7] | remaining activity at 10 µM [8] | remaining activity at 10 µM [9] | remaining activity at 10 µM [10] | % Enzyme Activity (relative to DMSO controls) [7] | % Enzyme Activity (relative to DMSO controls) [8] | % Enzyme Activity (relative to DMSO controls) [9] | % Enzyme Activity (relative to DMSO controls) [10] | % Enzyme Activity (relative to DMSO controls) [1] | % Enzyme Activity (relative to DMSO controls) [2] | % Enzyme Activity (relative to DMSO controls) [3] | % Enzyme Activity (relative to DMSO controls) [4] | % Enzyme Activity (relative to DMSO controls) [5] | % Enzyme Activity (relative to DMSO controls) [6] |
| --- | --- | --- | --- | --- | --- | --- | --- | --- | --- | --- | --- | --- | --- | --- | --- | --- | --- | --- | --- | --- |
| CC(C)c1cc(-c2n[nH]c(=O)n2-c2ccc3c(ccn3C)c2)c(O)cc1O [Ganetespib (STA9090)] | 65.8% | 92% | 81.4% | 119% | 84.4% | 82.6% |  |  |  |  |  |  |  |  |  |  |  |  |  |  |
| CC(C)c1cc(-c2n[nH]c(=O)n2-c2ccc3c(ccn3C)c2)c(O)cc1O [Ganetespib] |  |  |  |  |  |  | 95.5% | 93.1% | 23.5% | 97.7% |  |  |  |  |  |  |  |  |  |  |
| CCNC(=O)c1noc(-c2cc(C(C)C)c(O)cc2O)c1-c1ccc(CN2CCOCC2)cc1 [Luminespib] |  |  |  |  |  |  | 98.6% | 103% | 26.4% | 103% | 98.44% | 102.69% | 26.15% | 101.68% |  |  |  |  |  |  |
| CCNC(=O)c1noc(-c2cc(C(C)C)c(O)cc2O)c1-c1ccc(CN2CCOCC2)cc1 [Luminespib (AUY-922)] | 86.2% | 105% | 104% | 108% | 98.4% | 102% |  |  |  |  |  |  |  |  | 84.15% | 103.84% | 103.02% | 107.77% | 97.59% | 101.55% |
